Assay [1] concerns INS-1E cytokine-induced mitochondrial depolarization, JC-1 ratio, 48 h. Put plainly: INS-1E mitochondrial potential rescue under cytokines – cell-based, JC-1 fluorescence ratio, dry powder, dose response (AID 488931).
Assay in assay [2]: as above
The note with it: INS-1E cytokine-induced mitochondrial depolarization, JC-1 ratio, 48 h; at 19.5 µM (top of the series).

Active and inactive are the calls of the source.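 Rule for the calls: active = rising protection curve whose AC50 sits at or below ten times the top dose tested for that sample; inconclusive = flat response between 30 and 70 percent, or poor fit; inactive = the rest.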

Usually AC50 stands for the midpoint of the concentration-response curve, whichever way the signal moves. `COc1ccc(S(=O)(=O)N(C)C[C@@H]2Oc3c(NC(=O)Nc4ccccc4)cccc3C(=O)N([C@H](C)CO)C[C@H]2C)cc1`: the AC50 in assay [1] is > 19.5 µM (inactive).
With `CNC[C@@H]1Oc2c(NC(=O)Nc3cccc4ccccc34)cccc2C(=O)N([C@@H](C)CO)C[C@H]1C`, the protection from depolarization in assay [2] is 4.81% (inactive).
The same measure, in the same setting: the result for `COc1ccc(S(=O)(=O)N(C)C[C@@H]2Oc3c(NC(=O)C4CC4)cccc3C(=O)N([C@@H](C)CO)C[C@H]2C)cc1` reads 0.699% (inactive).
On the same count and under the same terms, the result for `COc1ccc(S(=O)(=O)N(C)C[C@@H]2Oc3c(NC(=O)C4CCOCC4)cccc3C(=O)N([C@@H](C)CO)C[C@H]2C)cc1` reads 0.344% (inactive).

(Values after PubChem BioAssay AID488931 (Broad Institute, 2010).)
